The structures appear in SMILES notation.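 48-hour exposure; five concentrations; linearly interpolated endpoints. GI50 marks 50% less growth.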 Calls of active or inactive are those of the source. Rule as the data show it: active = GI50 up to about 1.1 µM and inactive = higher. A value given as a limit tells only on which side of the number the result lay.

Some test systems named below: KM12; BT-549; SNB-75; OVCAR-5; MDA-N; HOP-62; UACC-62; NCI-H522; T47D; U-251; PC-3; MCF7; HCT-116; DU-145; NCI-H226; SN12C; A498; SW-620; LOX IMVI.
Common to all, as to assay: NCI-60 cell line screen, 48 h

`CC(C)c1nc2c(Cl)c3ncccc3cc2[nH]c1=O`: the GI50 was 80.4 µM (inactive) in the assay with KM12; 54.5 µM (inactive) in the assay on BT-549; 26.4 µM (inactive) in the assay on SNB-75; > 100 µM (inactive) in the assay on OVCAR-5; > 100 µM (inactive) in the assay on MDA-N; 32.7 µM (inactive) in the assay on HOP-62. Also, the GI50 is > 100 µM (inactive) with UACC-62; 16.7 µM (inactive) in the assay on NCI-H522; 70.5 µM (inactive) with T47D; 73.3 µM (inactive) with U-251; > 100 µM (inactive) in the assay with PC-3; > 100 µM (inactive) with MCF7. In addition, the GI50 with HCT-116 is > 100 µM (inactive); in the assay on DU-145, > 100 µM (inactive); with NCI-H226 it was 65.9 µM (inactive); in the assay with SN12C, > 100 µM (inactive); with A498 it was > 100 µM (inactive); in the assay on SW-620, > 100 µM (inactive).

Regarding `c1csc(-c2cc(-c3ccsc3)c(-c3cccs3)s2)c1`, the GI50 was 31.8 µM (inactive) in the assay with KM12; 46.2 µM (inactive) with BT-549; 17.9 µM (inactive) in the assay with SNB-75; > 100 µM (inactive) with OVCAR-5; 32 µM (inactive) in the assay on MDA-N; > 100 µM (inactive) in the assay with HOP-62. The GI50 with UACC-62 is 48.4 µM (inactive); with NCI-H522, 61.7 µM (inactive); in the assay on T47D, 2.7 µM (inactive); in the assay with U-251, 81.3 µM (inactive); in the assay with PC-3, > 100 µM (inactive); in the assay with MCF7 it was 6.75 µM (inactive). Also, the GI50 with HCT-116 is 29.8 µM (inactive); with DU-145, > 100 µM (inactive); in the assay on NCI-H226 it was > 100 µM (inactive); in the assay with SN12C, > 100 µM (inactive); in the assay with A498, > 100 µM (inactive); in the assay with SW-620, 74.3 µM (inactive).

Consider `CC1(C)OC(=S)N(c2ccccc2)C12C=Cc1cc3ccccc3cc1O2` (stereo not given), for which the GI50 with KM12, in the assay with BT-549, in the assay with SNB-75, in the assay with OVCAR-5, with MDA-N and with HOP-62 was > 100 µM (inactive) in each case. For the same compound, the GI50 in the assay on UACC-62 was > 100 µM (inactive); in the assay with LOX IMVI, > 100 µM (inactive); in the assay on T47D it was > 100 µM (inactive); with U-251, > 100 µM (inactive); in the assay on PC-3, 44.2 µM (inactive); in the assay with MCF7 it was > 100 µM (inactive). For the same compound, the GI50 in the assay on HCT-116, in the assay on DU-145, in the assay with NCI-H226, with SN12C, with A498 and in the assay with SW-620 was > 100 µM (inactive) throughout.

Take `CC[C@]1(Cc2ccc(OC)c(OC)c2)[C@@H]2C[C@@H](C3OCCO3)ON2O[C@H](OC2CCCC2(c2ccccc2)c2ccccc2)[C@@H]1OC(C)=O` (stereo not given in full): the GI50 was 15.6 µM (inactive) with KM12; 25.6 µM (inactive) in the assay on BT-549; 24 µM (inactive) in the assay with SNB-75; 17.9 µM (inactive) in the assay with OVCAR-5; 36.1 µM (inactive) with MDA-N; 19.6 µM (inactive) with HOP-62. For the same compound, the GI50 is 37.4 µM (inactive) with UACC-62; 15.1 µM (inactive) in the assay with NCI-H522; 23.3 µM (inactive) in the assay with LOX IMVI; 18.7 µM (inactive) in the assay on T47D; 33.2 µM (inactive) in the assay on U-251; 24.4 µM (inactive) with PC-3. For the same compound, the GI50 in the assay with MCF7 is 22.5 µM (inactive); with HCT-116, 17.4 µM (inactive); in the assay with DU-145, 26.6 µM (inactive); in the assay with NCI-H226, 20.6 µM (inactive); in the assay with SN12C, 31.3 µM (inactive); in the assay with SW-620 it was 33 µM (inactive).

For `C/C(=N\NC1=NCCN1)c1cn(C2=NCCN2)nc1C`, the GI50 in the assay with KM12 was > 100 µM (inactive); with BT-549, > 100 µM (inactive); with SNB-75 it was 77.6 µM (inactive); with OVCAR-5, > 100 µM (inactive); in the assay on MDA-N, > 100 µM (inactive); in the assay with HOP-62, > 100 µM (inactive). Also, the GI50 in the assay on UACC-62, in the assay with NCI-H522, in the assay on T47D, with U-251, in the assay with PC-3 and in the assay with MCF7 was > 100 µM (inactive) throughout. Moreover, the GI50 with HCT-116, in the assay on DU-145, with NCI-H226, with SN12C, in the assay with A498 and in the assay with SW-620 was > 100 µM (inactive) in each case.

For `COC(=O)/C=C(\S/C(=C(/c1ccc(OC)cc1)n1cc(C(=O)OC)c(C(=O)OC)n1)c1ccc(OC)cc1)C(=O)OC`, the GI50 is 76.2 µM (inactive) with KM12; 65.3 µM (inactive) with BT-549; 55.1 µM (inactive) with SNB-75; 27.1 µM (inactive) with OVCAR-5; 19.6 µM (inactive) in the assay on MDA-N; 44.9 µM (inactive) in the assay with HOP-62. The GI50 with UACC-62 was 34.9 µM (inactive); in the assay with LOX IMVI, 9.35 µM (inactive); in the assay on T47D it was 3.02 µM (inactive); with U-251, 33.6 µM (inactive); in the assay with PC-3, 26.6 µM (inactive); in the assay with MCF7 it was 5.62 µM (inactive). For the same compound, the GI50 is 9.98 µM (inactive) in the assay on HCT-116; 15.6 µM (inactive) in the assay on DU-145; 48.6 µM (inactive) in the assay with NCI-H226; 15.5 µM (inactive) in the assay on SN12C; > 100 µM (inactive) with A498; 7.06 µM (inactive) in the assay with SW-620.

Turning to `Cc1cc(NS(=O)(=O)c2ccc(NC(=O)c3ccc4nc5ccccc5c(Nc5ccc(S(=O)(=O)Nc6cc(C)on6)cc5)c4c3)cc2)no1`, the GI50 in the assay with KM12, with BT-549, in the assay on SNB-75, in the assay on OVCAR-5, in the assay on MDA-N and with HOP-62 was > 50 µM (inactive) each time. Also, the GI50 in the assay on UACC-62, in the assay on NCI-H522, in the assay with LOX IMVI, in the assay on T47D, in the assay with U-251 and in the assay with PC-3 was > 50 µM (inactive) each time. Moreover, the GI50 in the assay with MCF7, in the assay on HCT-116, in the assay with DU-145, with NCI-H226, in the assay with SN12C and with SW-620 was > 50 µM (inactive) in each case.

Regarding `Cc1cc(C2(O)C=C(C(C)(C)C)C(=O)C(C(C)(C)C)=C2)c(C)cc1C1(O)C=C(C(C)(C)C)C(=O)C(C(C)(C)C)=C1`, the GI50 in the assay on KM12, in the assay on BT-549, with SNB-75, in the assay with OVCAR-5, in the assay on MDA-N and with HOP-62 was > 100 µM (inactive) in each case. In addition, the GI50 in the assay with UACC-62, with NCI-H522, with LOX IMVI, with T47D, in the assay with U-251 and in the assay with PC-3 was > 100 µM (inactive) each time. Further, the GI50 with MCF7, in the assay on HCT-116, in the assay with DU-145, in the assay on NCI-H226, in the assay on SN12C and in the assay on SW-620 was > 100 µM (inactive) in each case.

As for `Brc1ccc(C2C3CSc4ccccc4C3=NN2c2ccccc2)cc1` (stereo not given), the GI50 with KM12 is 44.5 µM (inactive); with BT-549, > 100 µM (inactive); in the assay on SNB-75, 69 µM (inactive); in the assay with MDA-N, > 100 µM (inactive); in the assay with HOP-62 it was > 100 µM (inactive); with UACC-62, 75.7 µM (inactive). For the same compound, the GI50 in the assay with LOX IMVI was 77.8 µM (inactive); with T47D it was 14.3 µM (inactive); in the assay on U-251 it was 54.2 µM (inactive); in the assay with PC-3, 43.8 µM (inactive); in the assay on MCF7, 14.5 µM (inactive); with HCT-116, > 100 µM (inactive). For the same compound, the GI50 is > 100 µM (inactive) in the assay with DU-145; > 100 µM (inactive) in the assay with NCI-H226; > 100 µM (inactive) in the assay on SN12C; > 100 µM (inactive) in the assay with A498; 34.7 µM (inactive) in the assay with SW-620.

As for `O=C(O)COCC(=O)N(CCOCCN(Cc1ccccc1)C(=O)COCC(=O)O)Cc1ccccc1`, the GI50 in the assay on KM12, in the assay with BT-549, in the assay on OVCAR-5, with MDA-N, in the assay with HOP-62 and in the assay on UACC-62 was > 100 µM (inactive) throughout. Moreover, the GI50 in the assay with NCI-H522, with LOX IMVI, in the assay with T47D, with U-251, in the assay on PC-3 and with MCF7 was > 100 µM (inactive) each time. The GI50 with HCT-116, in the assay on DU-145, with NCI-H226, in the assay on SN12C, with A498 and in the assay with SW-620 was > 100 µM (inactive) each time.

With `CCCCCCNC(=O)c1cc(CCc2cc(O)ccc2O)ccc1O`, the GI50 with KM12 is 4.46 µM (inactive); in the assay on BT-549 it was 1.94 µM (inactive); in the assay on SNB-75 it was 4.93 µM (inactive); in the assay on OVCAR-5, 7.05 µM (inactive); in the assay on MDA-N, 2.66 µM (inactive); with HOP-62, 6.24 µM (inactive). Moreover, the GI50 in the assay with NCI-H522 is 0.916 µM (active); in the assay with LOX IMVI it was 4.67 µM (inactive); in the assay with T47D it was 1.85 µM (inactive); with U-251, 2.3 µM (inactive); in the assay on PC-3, 2.18 µM (inactive); with MCF7, 3.25 µM (inactive). For the same compound, the GI50 was 6.78 µM (inactive) in the assay with DU-145, 4.23 µM (inactive) with NCI-H226, 4.24 µM (inactive) in the assay with A498 and 7.66 µM (inactive) in the assay on SW-620.
